The values that follow come from patent US20260183396A1, “CXCR3 OVEREXPRESSION IN CAR-NK CELLS PRIMES MIGRATION/HOMING INTO THE TUMOR MICROENVIRONMENT” (DANA-FARBER CANCER INSTITUTE, INC., priority 2022, published 2026).

One data set relates to T-cells. Description: Immune cell toxicity assays, T-cells. It counts as cell-based, human. The protocol: Immune Cell Toxicity Assays. […] Following treatment, samples were stained with anti-CD45, anti-CD3, anti-CD4, anti-CD8, and anti-CD56 antibodies (Table 1), as well as Zombie Green live/dead (Biolegend 423111) and analyzed by flow cytometry as described above. Data were analyzed using FlowJo software version 10.5.3. As an orthogonal measure of viability, CellTiter-Glo was performed on primary T-cells and NK cells.
CellTiter-Glo luminescent cell viability assay. Cell viability was assessed using the CellTiter-Glo Luminescent Cell Viability assay (Promega, G7571) according to manufacturer's instructions. […] All conditions were tested in triplicate and plates were read on a Tecan Infinite Mplex Microplate Reader.

The next data set concerns STING. Briefly: STING immunoblotting in NK cells and TILs. It counts as cell-based, human. The procedure: Immunoblotting. […] Imaging of blots and was performed using the LI-COR Odyssey system.
(In general: Immunoblotting shows a protein as a band on a membrane.)

The test system of the next data set is IRF3. Briefly: IRF3 immunofluorescence in PDOTS. The note with it: PDOTS following treatment. It counts as cell-based, human. The protocol:
PDOTS immunofluorescence and live/dead quantification. Dual labeling was performed by loading microfluidic devices with Nexcelom ViaStain acridine orange/propidium iodide (AO/PI) Staining Solution (Nexcelom, CS2-0106) or 10 μg/mL solution of Hoechst 33342 (Thermo Fisher Scientific) and 1 μg/mL solution of PI (Thermo Fisher Scientific). Following incubation with the dyes (20 minutes at room temperature in the dark for AO/PI or 45 minutes for Hoechst 33342/PI), images were captured using 4× objective of a Nikon Eclipse 80i fluorescence microscope equipped with automated motorized stage (Proscan), Z-stack (Prior), and Zyla 5.5 sCMOS camera (Andor). Image capture and analysis were performed using NIS-Elements AR software package. Live and dead cell quantitation was performed by measuring total cell area of each dye. For additional immunofluorescence studies, PDOTS were washed with PBS and blocked with FcR blocking reagent (Miltenyi) for 30 minutes at room temperature. Directly conjugated antibodies CD326 EpCAM-AlexaFluor647 (clone 9C4), CD45-AlexaFluor647 (HI30) (BioLegend), and mesothelin-PE (clone REA1057, Miltenyi) were diluted 1:50 in 10 μg/mL solution of Hoechst 33342 (Thermo Fisher Scientific) in PBS and loaded into microfluidic devices for 1-hour incubation at room temperature in the dark. Spheroids were washed twice with PBS with 0.1% Tween20 followed by PBS. […]

In another data set the test system is MPM tumor cell lines. Description: 3D vascular model of NK cell migration. It counts as cell-based, human. The note with it: presence and absence of the vascular barrier. The procedure: 3D vascular model. To generate the tumor-vascular model, H226 spheroids were mixed with collagen rat tail hydrogel (2.5 mg/ml) and injected into the center gel region of the 3D microfluidic chamber (10-15 μL per each microfluidic chamber). After incubation for 30 minutes at 37° C. in sterile humidity chambers, the side wall of one flanked channel (media channel) was coated with a 150 μg/ml collagen solution in PBS to allow for better adhesion of eCs to the channel. After 15 mins, the channel was washed once with media. To create the 3D vessel, 25 μL cell suspension of 3×10^6 cells/ml human umbilical vein endothelial cells (HUVECs; C2519AS, Lonza) were injected in the media channel coated with collagen. The channel was rotated twice to create a confluent hollow-lumen 3D vessel. To allow the cells to attach to the media-gel interface and form a monolayer, the chip was incubated with cells face down for 15 mins. Next, 50 μL cell suspension was reinjected, and the chip was flipped to cover the upper part of the 3D vascular channel. After 90 mins of incubation in the humidity chamber at 37° C., cell culture media was gently added to both channels and further incubated to form a confluent monolayer. After vessel formation, NK cells (labelled with cell tracker) were added to the 3D vessel at 2:1 E:T ratio. […] NK cell migration+/−vessel was quantified at 24 hours. Image capture and analysis was performed using a fluorescence confocal microscope and processing software. The 3D vascular channels were rinsed in PBS and fixed with 4% PFA for 15 min at room temperature. Cell membranes were permeabilized with 0.1% Triton X-100 for 5 min at room temperature and washed twice with PBS. HUVEC cells were stained for F-actin with green phalloidin (Thermo Fisher Scientific A12379) and Hoechst 33342. Images were captured on a Nikon Eclipse 80i fluorescence microscope equipped with Z-stack (Prior) and CoolSNAP CCD camera (Roper Scientific).

The subject of a further data set is MPM cell lines. Briefly: NK cell killing assay. It counts as cell-based, human. The note with it: NK co-culture, only with MPM cells expressing STING. The protocol: NK cell killing assay. Target cells (MPM cell lines) were detached via trypsinization, labelled with CellTrace Violet (CTV, LifeTechnologies) and then seeded in a 96-well plate at a cell density of 25,000 cells per well. […] After 6 hours of co-culture, the cells were harvested and incubated with an antibody for the apoptosis marker Annexin V (PE) and the live/dead stain 7-AAD (Biolegend). Cells were analyzed on a BD LSRFortessa with FACSDiva software (BD Biosciences). Data were analyzed using FlowJo software version 10.5.3. The apoptotic cells were evaluated by gating on the CTV+ population and represented as percentage live or dead (late apoptotic) cells. Apoptotic cell analysis was conducted using NK cells extracted from as many as 4 different healthy donors per target MPM cell line to incorporate baseline donor variability.

Another data set relates to MPM PDOTS. Briefly: PDOTS live/dead quantification ex vivo. It counts as cell-based.

Each structure is given as a SMILES string.

Method for MPM PDOTS: Patient-derived organotypic tumor spheroids (PDOTS). […] Briefly, fresh tumor specimens were minced in a 15 mL falcon tube in prewarmed to 37° C. full media (DMEM from Thermo Fisher Scientific+10% FBS)+100 U/mL collagenase type IV (Life Technologies) and 50 μg/mL dNase I (Roche) for approximately 20 minutes using sterile scissors and pipetting. Dissociated material was strained over 100-μm filter and 40-μm filters to generate S1 (>100 μm), S2 (40-100 μm), and S3 (<40 μm) spheroid fractions, which were subsequently maintained in ultralow-attachment (ULA) tissue culture plates (Corning). […] S2 fractions were used for ex vivo culture by resuspending them in type I rat tail collagen (Corning) at a concentration of 2.8 mg/mL prior to loading into the center gel region of the 3-D microfluidic culture device (AIM Biotech) and incubation for 40 minutes at 37° C. in humidity chambers to allow for polymerization. […]
PDOTS immunofluorescence and live/dead quantification. […] Following incubation with the dyes (20 minutes at room temperature in the dark for AO/PI or 45 minutes for Hoechst 33342/PI), images were captured using 4× objective of a Nikon Eclipse 80i fluorescence microscope equipped with automated motorized stage (Proscan), Z-stack (Prior), and Zyla 5.5 sCMOS camera (Andor). […] Live and dead cell quantitation was performed by measuring total cell area of each dye.

In the case of `Nc1ncnc2c1ncn2[C@@H]1O[C@@H]2COP(=O)([S-])O[C@@H]3[C@H](O)[C@@H](COP([O-])(=S)O[C@H]2[C@H]1O)O[C@H]3n1cnc2c(N)ncnc21.[Na+].[Na+]` (stereo partly drawn) [ADU-S100], the “cytotoxicity to T-cells by flow cytometry” value in the data set on T-cells (MPM tumor explants, increased from 24 to 72 hours) is recorded as “cytotoxic”. In the data set on T-cells (with or without BCMA CAR), the “cytotoxicity in T-cells purified from peripheral blood” value was “dose-dependent cytotoxicity”. Further, the “time within which STING was degraded” value in the data set on STING (NK cells) was in the range of 3 to 6 h. Further, the “T-cell STING degradation” value with STING (T-cells, STING phosphorylated and activated) is listed as “minimally degraded”. Also, in the data set on IRF3, the IRF3 localisation entry is “nuclear translocation”. For the same molecule, in the data set with MPM tumor cell lines, the NK cell migration entry was “enhanced NK cell migration”. Moreover, in the data set with MPM cell lines, the “apoptosis of tumor cells” value is given as “enhanced”. Further, the “specimens approximating clinical criteria for response with >30% decrease in cell area, p<0.05” value with MPM PDOTS (35 MPM patient specimens ex vivo) amounted to 7 specimens. Besides, the “primary NK cell response in MPM PDOTS” value in the data set on MPM PDOTS (combined treatment with primary NK cells, cells from 2 out of 3 donors) is “significantly enhanced”.
